Measurements from patent publication US20250011318A1 (ARCUS BIOSCIENCES, INC., priority 2023, published 2025).

Assays:
Jurkat cells = experiment: IL-2 secretion assay in CD3/CD28-activated Jurkat cells (AlphaLISA); type: cell-based, human; conditions: Homo sapiens, CD3/CD28 T Cell Activator, 24 h, IL-2 AlphaLISA
In short: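 IL-2 release quantified by AlphaLISA in supernatants after 24 h CD3/CD28 activation at 37° C. Compounds, 10 μM to 300 pM final in 1:2 steps, were added to 50,000 Jurkat cells/well 1 h before activation; 4-parameter fit gave EC50.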

Cbl-b = biological target: T1, Cbl-b (Homo sapiens, UniProt Q13191); experiment: Cbl-b probe displacement HTRF binding assay; conditions: 0.4 nM biotinylated Cbl-b, 150 nM BODIPY probe
T1 construct: biotin (biotinylated)
T1 sequence (Q13191 whole entry, species assumed): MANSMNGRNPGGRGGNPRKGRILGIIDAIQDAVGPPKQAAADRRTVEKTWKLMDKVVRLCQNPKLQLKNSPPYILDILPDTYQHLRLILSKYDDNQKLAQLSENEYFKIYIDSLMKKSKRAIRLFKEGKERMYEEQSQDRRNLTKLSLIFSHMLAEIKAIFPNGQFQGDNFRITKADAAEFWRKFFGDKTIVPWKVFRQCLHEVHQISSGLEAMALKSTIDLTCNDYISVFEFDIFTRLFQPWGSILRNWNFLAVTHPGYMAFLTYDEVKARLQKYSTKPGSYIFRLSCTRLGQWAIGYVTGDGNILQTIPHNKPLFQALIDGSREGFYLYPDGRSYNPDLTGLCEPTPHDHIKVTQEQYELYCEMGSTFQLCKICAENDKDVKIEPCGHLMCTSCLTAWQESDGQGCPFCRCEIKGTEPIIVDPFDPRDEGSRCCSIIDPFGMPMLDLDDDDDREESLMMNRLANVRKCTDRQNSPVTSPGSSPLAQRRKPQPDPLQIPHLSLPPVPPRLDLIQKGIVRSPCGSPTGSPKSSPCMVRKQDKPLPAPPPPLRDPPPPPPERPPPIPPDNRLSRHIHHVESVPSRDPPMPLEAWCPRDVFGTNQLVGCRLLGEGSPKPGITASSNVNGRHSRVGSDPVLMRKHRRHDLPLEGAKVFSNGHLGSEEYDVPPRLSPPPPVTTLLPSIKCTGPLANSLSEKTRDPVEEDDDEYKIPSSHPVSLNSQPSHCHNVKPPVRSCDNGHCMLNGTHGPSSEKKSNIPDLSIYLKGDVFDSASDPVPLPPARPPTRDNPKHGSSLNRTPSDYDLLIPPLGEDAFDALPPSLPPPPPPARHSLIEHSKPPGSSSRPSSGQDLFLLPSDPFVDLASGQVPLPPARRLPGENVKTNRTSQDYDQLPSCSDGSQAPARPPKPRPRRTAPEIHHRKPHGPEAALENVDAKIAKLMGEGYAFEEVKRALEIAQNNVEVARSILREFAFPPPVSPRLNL
In short: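 Probe-displacement HTRF in Hepes/NaCl/Triton/TCEP/BSA buffer at room temperature: compound dilutions (to 10 μM) incubated 60 min with 0.4 nM biotin-Cbl-b, 150 nM BODIPY probe added for 15 min, Tb-streptavidin read. Signal normalised to DMSO and no-protein controls; IC50 from four-parameter curve.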

Structure (SMILES) | EC50 (Jurkat cells) [nM] | IC50 (Cbl-b) [nM]
COCCNCc1cc2ncn(-c3cc(-c4ccc(F)cc4-n4nccc4C(F)(F)F)cc(C4CC4)n3)c(=O)c2[nH]1 [Example 104, 3-[6-cyclopropyl-4-[4-fluoro-2-[5-(trifluoromethyl)pyrazol-1-yl]phenyl]pyridin-2-yl]-6-[(2-methoxyethylamino)methyl]-5H-pyrrolo[3,2-d]pyrimidin-4-one] | 100 to 1000 | < 100
CC1(NCc2cc3ncn(-c4cc(-c5ccc(F)cc5-n5nccc5C(F)(F)F)cc(C5CC5)n4)c(=O)c3[nH]2)CCC1 [Example 105, 3-[6-cyclopropyl-4-[4-fluoro-2-[5-(trifluoromethyl)pyrazol-1-yl]phenyl]pyridin-2-yl]-6-[[(1-methylcyclobutyl)amino]methyl]-5H-pyrrolo[3,2-d]pyrimidin-4-one] | 100 to 1000 | < 100
COC1CN(Cc2cc3ncn(-c4cc(-c5ccc(F)cc5-c5nc(C#N)cn5C)cc(C5CC5)n4)c(=O)c3[nH]2)C1 [Example 109, 2-[2-(6-cyclopropyl-2-{2-[(3-methoxy-1-azetidinyl)methyl]-7-oxo-1,6-dihydro-1,4,6-triaza-6-indenyl}-4-pyridyl)-5-fluorophenyl]-1-methyl-4-imidazolecarbonitrile] | 100 to 1000 | < 100
COCCNCc1cc2c(C3CC3)cn(-c3cc(-c4ccc(F)cc4-c4nc(C#N)cn4C)cc(C4CC4)n3)c(=O)c2[nH]1 [Example 110, 2-[2-[2-cyclopropyl-6-[4-cyclopropyl-2-[(2-methoxyethylamino)methyl]-7-oxo-1H-pyrrolo[2,3-c]pyridin-6-yl]pyridin-4-yl]-5-fluorophenyl]-1-methylimidazole-4-carbonitrile] | < 100 | < 100
COC[C@H](C)NCc1cc2ncn(-c3cc(-c4ccc(F)cc4-c4nc(C#N)cn4C)cc(C4CC4)n3)c(=O)c2[nH]1 [Example 111, 2-[2-[2-cyclopropyl-6-[6-[[[(2S)-1-methoxypropan-2-yl]amino]methyl]-4-oxo-5H-pyrrolo[3,2-d]pyrimidin-3-yl]pyridin-4-yl]-5-fluorophenyl]-1-methylimidazole-4-carbonitrile] | < 100 | < 100
Cn1cc(C#N)nc1-c1cc(F)ccc1-c1cc(C2CC2)nc(-n2cnc3cc(CNCCC(F)(F)F)[nH]c3c2=O)c1 [Example 112, 2-[2-[2-cyclopropyl-6-[4-oxo-6-[(3,3,3-trifluoropropylamino)methyl]-5H-pyrrolo[3,2-d]pyrimidin-3-yl]pyridin-4-yl]-5-fluorophenyl]-1-methylimidazole-4-carbonitrile] | < 100 | < 100

The remaining lines, values ahead:

EC50 (Jurkat cells) [nM] | IC50 (Cbl-b) [nM] | Structure (SMILES)
< 100 | < 100 | Cc1ccnnc1-c1cc(F)ccc1-c1cc(C2CC2)nc(-n2cnc3cc(CN4CCO[C@H](C)C4)[nH]c3c2=O)c1 [Example 106, 3-[6-cyclopropyl-4-[4-fluoro-2-(4-methylpyridazin-3-yl)phenyl]pyridin-2-yl]-6-[[(2R)-2-methylmorpholin-4-yl]methyl]-5H-pyrrolo[3,2-d]pyrimidin-4-one]
< 100 | < 100 | COCCNCc1cc2ncn(-c3cc(-c4ccc(F)cc4-c4nc(C#N)cn4C)cc(C4CC4)n3)c(=O)c2[nH]1 [Example 107, 2-[2-[2-cyclopropyl-6-[6-[(2-methoxyethylamino)methyl]-4-oxo-5H-pyrrolo[3,2-d]pyrimidin-3-yl]pyridin-4-yl]-5-fluorophenyl]-1-methylimidazole-4-carbonitrile]
< 100 | < 100 | COCCN(C)Cc1cc2ncn(-c3cc(-c4ccc(F)cc4-c4nc(C#N)cn4C)cc(C4CC4)n3)c(=O)c2[nH]1 [Example 108, 2-{2-[6-cyclopropyl-2-(2-{[(2-methoxyethyl)-N-methylamino]methyl}-7-oxo-1,6-dihydro-1,4,6-triaza-6-indenyl)-4-pyridyl]-5-fluorophenyl}-1-methyl-4-imidazolecarbonitrile]
